Measured values from patent US8492385B2, “Crystalline modifications of N-alpha-(2,4,6-triisopropylphenylsulfonyl)-3-hydroxyamidino- (L)- phenylalanine 4-ethoxycarbonylpiperazide and/or salts thereof” (Wilex AG, priority 2004, dated 2013).

Key:
Type in all cases: physicochemical
[1] = Investigation of the crystallinity by X-ray diffractometry; conditions: salts suspended 7 days in a suitable solvent, filtered, dried at room temperature
Source text: In a second step, the salts were suspended for 7 days in a suitable solvent, filtered and dried at room temperature.
Processes: X-ray diffractometry (XRD); microscopy

[2] = Investigation of the hygroscopicity (storage at 85% relative humidity, TGA); conditions: storage for 1 week/85% relative humidity
[3] = Polymorphism screening / stability of the solid form (stirring in solvents, mechanical stress)
[4] = Thermomicroscopy of WX-671.1
Experimental: Thermomicroscopic recordings of a sample of WX-671.1 were made (not shown). Agglomerates were observed which show no specific habit. The active compound decomposes with bubble formation from about 197° C. Differences to the decomposition temperature observed in the DSC calorimeter come about due to the different heating rates. WX-671.1 is obtained in nonspecific form from solvents.

[5] = DSC and TGA thermograms of WX-671.1 (hydrogensulfate salt)
Experimental: In this example, thermograms were plotted by differential scanning calorimetry (DSC) and thermo-gravimetry (TGA). […] It decomposes from about 180° C. (exothermic peak in the DSC thermogram, mass loss in the TGA thermogram in the corresponding temperature range). The decomposition temperatures are strongly heating rate-dependent and were determined in the DSC calorimeter at a heating rate of 2 Kmin^−1. The DSC table measurements shown were recorded at a heating rate of […] is correspondingly recorded at higher temperatures.

Compound | XRD (crystallinity) [1] | TGA (hygroscopicity) [2] [%] | TGA, kind of water uptake [2] | change of form on stirring in water:ethanol (1:1) ([3]; mesophase B) | change of form due to mechanical stress ([3]; mesophase B, grinding in a mortar, compressing at 9 kbar) | change of form on stirring in isopropanol ([3]; mesophase B, room temperature, one week) | decomposition with bubble formation, temperature [4] | decomposition temperature ([5]; mesophase B) | mass loss (TGA) ([5]; mesophase C, up to 175° C.) [%] | mass loss (TGA) ([5]; modification A, at 150° C.) | thermodynamic stability of the form [3]
CCOC(=O)N1CCN(C(=O)[C@H](Cc2cccc(C(N)=NO)c2)NS(=O)(=O)c2c(C(C)C)cc(C(C)C)cc2C(C)C)CC1 [WX-671.1, N-α-(2,4,6-triisopropylphenylsulfonyl)-3-hydroxyamidino-(L)-phenylalanine 4-ethoxycarbonylpiperazide] | liquid crystalline | 0.8 | (adsorptive) | does not change | does not alter | changes into modification A | about 197 °C | about 185 °C | 4.5 | no significant mass loss | –
CCOC(=O)N1CCN(C(=O)[C@H](Cc2cccc(C(N)=NO)c2)NS(=O)(=O)c2c(C(C)C)cc(C(C)C)cc2C(C)C)CC1.O=S(=O)(O)O [WX-671.2, N-α-(2,4,6-triisopropylphenyl-sulfonyl)-3-hydroxyamidino-(L)-phenylalanine 4-ethoxy-carbonylpiperazide sulfate] | – | – | – | – | – | – | – | – | – | – | thermodynamically stable compound
Hydrochloride | completely amorphous | 7.5 | (adsorptive) | – | – | – | – | – | – | – | –
Tartrate | completely amorphous | 10.5 | (adsorptive) | – | – | – | – | – | – | – | –
